# Results from publication PMC9787943, “Calcium-Dependent Interplay of Lithium and Tricyclic Antidepressants, Amitriptyline and Desipramine, on N-methyl-D-aspartate Receptors” (International Journal of Molecular Sciences, 2022).
# Like-named read-outs stand apart in the source and are kept apart here.
# Tested on: T1, native di- and triheteromeric NMDARs composed of GluN1, GluN2A, and GluN2B subunits
# T1 construct: gene Grin1; native receptors in primary cultured cortical neurons (from fetal brains of 17-day pregnant rats, 10-14 days in culture); mixture of di- and triheteromers, heterotetramers with two GluN1 (known biology)
# Test: whole-cell patch clamp of cultured neurons, NMDA-elicited currents
# Format: cell-based, Rattus norvegicus
# Details: Na+ solution without Li+, 100 μM NMDA + 30 μM glycine, -70 mV, pH 7.2-7.4, 22-25 °C, no BAPTA, mode: Ca2+-dependent desensitization (paper suggests indirect, via NCX) plus open-channel bloc
# Text: whole-cell patch clamp of cultured neurons, NMDA-elicited currents on native di- and triheteromeric NMDARs composed of GluN1, GluN2A, and GluN2B subunits
SMILES,"IC50 (1 mM Ca2+, read-out: IC50 DES) [µM]","IC50 (2 mM Ca2+, read-out: IC50 ATL) [µM]"
CNCCCN1c2ccccc2CCc2ccccc21 [Desipramine],1.75 ± 0.17,–
CN(C)CCC=C1c2ccccc2CCc2ccccc21 [Amitriptyline],–,5 ± 1
